This note sets out measurements from PubChem BioAssay AID330 (DTP/NCI, 2004).

Where “and” joins values, the source holds several entries; their conditions need not be identical. Equal values may be shown once. Toxic doses and inconclusive results are not listed.

This assay concerns P388 leukemia ip, CD2F1 mice, survival T/C. Briefly: NCI In Vivo Anticancer Drug Screen. Data for tumor model P388 Leukemia (intraperitoneal) in CD2F1 (CDF1) mice. Conditions: endpoint: median survival time, higher = longer survival. The essentials:
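Mice carrying the transplanted tumor received test compound or vehicle. Survival was recorded in each group, and the value is the treated-group measurement divided by that of the vehicle-treated control group.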

Setting [1] is: dose: 50.0 mg/kg/injection, schedule: Q01DX005 (ip), vehicle: saline with Tween-80.
Where [2] appears, read: dose: 25.0 mg/kg/injection, schedule: Q01DX009 (ip), vehicle: saline with Tween-80.
Setting [3] is: dose: 25.0 mg/kg/injection, schedule: Q01DX009 (ip), vehicle: saline.
The mark [4] stands for this setting: dose: 50.0 mg/kg/injection, schedule: Q01DX009 (ip), vehicle: saline with Tween-80.
Where [5] appears, read: dose: 100.0 mg/kg/injection, schedule: Q01DX009 (ip), vehicle: saline with Tween-80.
Setting [6] is: dose: 200.0 mg/kg/injection, schedule: Q01DX009 (ip), vehicle: saline with Tween-80.
Where [7] appears, read: dose: 100.0 mg/kg/injection, schedule: Q01DX005 (ip), vehicle: saline with Tween-80.
Where [8] appears, read: dose: 200.0 mg/kg/injection, schedule: Q01DX005 (ip), vehicle: saline with Tween-80.
Where [9] appears, read: dose: 50.0 mg/kg/injection, schedule: Q01DX005 (ip), vehicle: Klucel (hydroxypropylcellulose) (HPC).
Setting [10] is: dose: 100.0 mg/kg/injection, schedule: Q01DX005 (ip), vehicle: Klucel (hydroxypropylcellulose) (HPC).

As for `CNc1ccc(Nc2c3ccccc3nc3ccccc23)cc1`, the T/C by setting is: (dose: 6.25 mg/kg/injection, schedule: Q04DX002 (ip), vehicle: distilled water + Tween-80) 109 % of control; (dose: 12.5 mg/kg/injection, schedule: Q04DX002 (ip), vehicle: distilled water + Tween-80) 120 % of control and 124 % of control; (dose: 25.0 mg/kg/injection, schedule: Q04DX002 (ip), vehicle: distilled water + Tween-80) 118 % of control; (dose: 50.0 mg/kg/injection, schedule: Q04DX002 (ip), vehicle: distilled water + Tween-80) 160 % of control; (dose: 100.0 mg/kg/injection, schedule: Q04DX002 (ip), vehicle: distilled water + Tween-80) 194 % of control and 232 % of control.
As to `O=C(Nc1ccc(C2=NCCN2)cc1)c1ccc(C(=O)Nc2ccc(C3=NCCN3)cc2)cc1`, the T/C runs as follows: (dose: 75.0 mg/kg/injection, schedule: Q01DX010 (ip), vehicle: saline) 118 % of control; (dose: 112.0 mg/kg/injection, schedule: Q01DX010 (ip), vehicle: saline) 100 % of control.
For the compound `Cc1cc(=O)[nH]c2c1CCCC2`, the T/C runs as follows: (dose: 100.0 mg/kg/injection, schedule: Q04DX003 (ip), vehicle: saline sonified) 107 % of control; (dose: 200.0 mg/kg/injection, schedule: Q04DX003 (ip), vehicle: saline sonified) 96 % of control; (dose: 400.0 mg/kg/injection, schedule: Q04DX003 (ip), vehicle: saline sonified) 92 % of control.
As to `Cn1c2c(c3ccccc31)-c1ncncc1CC2`, the T/C is, setting by setting: (dose: 50.0 mg/kg/injection, schedule: Q01DX005 (ip), vehicle: saline + Tween-80 + alcohol) 106 % of control; (dose: 100.0 mg/kg/injection, schedule: Q01DX005 (ip), vehicle: saline + Tween-80 + alcohol) 92 % of control; (dose: 200.0 mg/kg/injection, schedule: Q01DX005 (ip), vehicle: saline + Tween-80 + alcohol) 103 % of control.
In the case of `O=c1[nH]nc(-c2ccccc2)c2c(/C=C/c3ccccc3)onc12`, the T/C is, setting by setting: (dose: 60.0 mg/kg/injection, schedule: Q01DX005 (ip), vehicle: saline with Tween-80) 100 % of control; (dose: 120.0 mg/kg/injection, schedule: Q01DX005 (ip), vehicle: saline with Tween-80) 98 % of control.
With `COc1ccc(N=Nc2c(-c3cccs3)nn(C(=S)SC)c2C(F)(F)F)cc1`, the T/C was 101 % of control (dose: 7.5 mg/kg/injection, schedule: Q01DX005 (ip), vehicle: saline with Tween-80); 108 % of control (dose: 15.0 mg/kg/injection, schedule: Q01DX005 (ip), vehicle: saline with Tween-80); 95 % of control (dose: 30.0 mg/kg/injection, schedule: Q01DX005 (ip), vehicle: saline with Tween-80).
Regarding `N#C/C(=N\NC(=O)c1ccccc1)c1ccccc1`, the T/C by setting is: (dose: 12.5 mg/kg/injection, schedule: Q01DX005 (ip), vehicle: saline with Tween-80) 100 % of control; (dose: 25.0 mg/kg/injection, schedule: Q01DX005 (ip), vehicle: saline with Tween-80) 95 % of control; under setting [1], 103 % of control and 95 % of control.
Regarding `CCOC(=O)N1CCN(CCCCCOc2ccc(CC(C)(C)C)cc2Cl)CC1`, the T/C was 110 % of control under setting [2]; 93 % of control under setting [3]; 106 % of control under setting [4]; 100 % of control (dose: 50.0 mg/kg/injection, schedule: Q01DX009 (ip), vehicle: saline); 111 % of control under setting [5]; 113 % of control (dose: 100.0 mg/kg/injection, schedule: Q01DX009 (ip), vehicle: saline). The T/C reads like this: under setting [6], 117 % of control; (dose: 200.0 mg/kg/injection, schedule: Q01DX009 (ip), vehicle: saline) 92 % of control.
Take `CCCCN(CCCC)CC(O)c1c(Cl)c2ccccc2c2ccccc12` (stereo not given): the T/C runs as follows: under setting [2], 100 % of control; under setting [4], 93 % of control; under setting [5], 100 % of control.
With `C[CH2][Sn]([Br])([CH2]C)[c]1c(CN(C)C)cccc1CN(C)C`, the T/C is, setting by setting: (dose: 3.12 mg/kg/injection, schedule: Q01DX009 (ip), vehicle: saline) 99 % of control and 100 % of control; (dose: 6.25 mg/kg/injection, schedule: Q01DX009 (ip), vehicle: saline) 104 % of control and 106 % of control and 95 % of control; (dose: 12.5 mg/kg/injection, schedule: Q01DX009 (ip), vehicle: saline) 100 % of control and 95 % of control; under setting [3], 104 % of control and 95 % of control.
On to `N#C/C(=N\NC(=O)c1cccnc1)c1ccc(Cl)cc1`, for which the T/C was 92 % of control under setting [1], 92 % of control under setting [7] and 101 % of control under setting [8].
On to `CN(C)C1CC(C)(O)Cc2cc3c(c(O)c21)C(=O)c1c(O)cc2c(c1C3=O)OC1OC2(C)C(O)C(N(C)C)C1O` (stereo not given), for which the T/C runs as follows: (dose: 3.12 mg/kg/injection, schedule: Q01DX009 (ip), vehicle: other) 103 % of control; (dose: 6.25 mg/kg/injection, schedule: Q01DX009 (ip), vehicle: other) 120 % of control; (dose: 50.0 mg/kg/injection, schedule: Q01DX009 (ip), vehicle: other) 153 % of control.
In the case of `COc1ccc(N=C2C(=Nc3ccc(OC)cc3)N(c3ccc(OC)cc3)C(=S)N2C)cc1`, the T/C runs as follows: (dose: 50.0 mg/kg/injection, schedule: Q01DX005 (ip), vehicle: Klucel + Tween-80) 106 % of control; (dose: 100.0 mg/kg/injection, schedule: Q01DX005 (ip), vehicle: Klucel + Tween-80) 93 % of control; (dose: 200.0 mg/kg/injection, schedule: Q01DX005 (ip), vehicle: Klucel + Tween-80) 106 % of control.
As for `Cc1ccc2c(ccc(CC(=S)[S-])[n+]2C)c1`, the T/C runs as follows: (dose: 25.0 mg/kg/injection, schedule: Q01DX009 (ip), vehicle: Klucel (hydroxypropylcellulose) (HPC)) 114 % of control; (dose: 50.0 mg/kg/injection, schedule: Q01DX009 (ip), vehicle: Klucel (hydroxypropylcellulose) (HPC)) 120 % of control.
For `COc1ccc(/C=C2\SC(=S)N(C3CC3)C2=O)cc1OC`, the T/C is, setting by setting: under setting [9], 94 % of control; under setting [10], 88 % of control.
For `CN(C)P1(=O)OCC(C(C)(C)C)CN1c1ccccc1` (stereo not given), the T/C (dose: 100.0 mg/kg/injection, schedule: Q04DX003 (ip), vehicle: Klucel (hydroxypropylcellulose) (HPC)) is 97 % of control and the T/C (dose: 200.0 mg/kg/injection, schedule: Q04DX003 (ip), vehicle: Klucel (hydroxypropylcellulose) (HPC)) was 97 % of control.
For `O=C(O)C(=Cc1c2ccccc2cc2ccccc12)C(=O)O`, the T/C by setting is: under setting [1], 95 % of control; under setting [7], 99 % of control; under setting [8], 114 % of control.
For the compound `O=CNc1ccc2c3c(cccc13)-c1ccccc1-2`, the T/C under setting [9] is 89 % of control; the T/C under setting [10] was 97 % of control; the T/C (dose: 200.0 mg/kg/injection, schedule: Q01DX005 (ip), vehicle: Klucel (hydroxypropylcellulose) (HPC)) was 100 % of control.
Turning to `CC(O)C(=O)NC1CCCCC1` (stereo not given), the T/C (dose: 50.0 mg/kg/injection, schedule: Q01DX005 (ip), vehicle: saline) was 98 % of control; the T/C (dose: 100.0 mg/kg/injection, schedule: Q01DX005 (ip), vehicle: saline) was 88 % of control; the T/C (dose: 200.0 mg/kg/injection, schedule: Q01DX005 (ip), vehicle: saline) was 89 % of control.
Regarding `CCC(C)/C(=C\C#N)NCCCN/C(=C/C#N)C(C)CC` (stereo not given), the T/C is 100 % of control (dose: 3.75 mg/kg/injection, schedule: Q01DX005 (ip), vehicle: Klucel + Tween-80); 109 % of control (dose: 7.5 mg/kg/injection, schedule: Q01DX005 (ip), vehicle: Klucel + Tween-80); 92 % of control and 98 % of control (dose: 15.0 mg/kg/injection, schedule: Q01DX005 (ip), vehicle: Klucel + Tween-80); 86 % of control (dose: 60.0 mg/kg/injection, schedule: Q01DX005 (ip), vehicle: Klucel + Tween-80); 88 % of control (dose: 120.0 mg/kg/injection, schedule: Q01DX005 (ip), vehicle: Klucel (hydroxypropylcellulose) (HPC)).
For the compound `COC1/C=C/OC2(C)Oc3c(C)c(O)c4c(O)c(c(/C=N/N5CC(C)N(C(=O)c6ccccc6)C(C)C5)c(O)c4c3C2=O)NC(=O)C(C)=C/C=C/C(C)C(O)C(C)C(O)C(C)C(OC(C)=O)C1C` (stereo not given), the T/C was 124 % of control (dose: 12.5 mg/kg/injection, schedule: Q01DX009 (ip), vehicle: saline with Tween-80); 124 % of control under setting [2]; 118 % of control under setting [4]; 116 % of control under setting [5]; 109 % of control under setting [6].
